This is an account of results in US20200060276A1, “THIAZOLE COMPOUND AND HERBICIDE” (OAT Agrio Co., Ltd., priority 2017, published 2020).

Holding throughout (assay type): in vivo
The test system of one experiment is Monochoria vaginalis. The experiment can be described thus: Test for Herbicidal Effect in Flooding Treatment (#1), MONVA. The following applies: for MONVA #1 herbicidal effect (growth inhibition grade): flooding treatment at seeding, dose 2 kg/ha, visual observation on day 21; for MONVA #1 herbicidal effect (growth inhibition rating 0-5): flooding treatment #1. The protocol: (#1) Test for Herbicidal Effect in Flooding Treatment: Styrol cups each having an opening diameter of 8 cm (about 52 cm^2) were respectively filled with soil (45 ml) which had been passed through a sieve (2 mm). Water (about 115 ml) was mixed with the soil such that the soil was flooded. After the soil stood still for 24 hours, Monochoria vaginalis, Echinochloa crus-galli (L.) P. Beauv. var. formosensis Ohwi, Cyperus difformis (umbrella sedge), and Scirpus juncoides were seeded. Each of the compounds of the present invention was dissolved in acetone, and the obtained product was then diluted with water containing Tween 80®. Each of the resultant chemical solutions was dropped on the entire surface of an associated one of treatment sections, so that each section was treated with 1 ml of the respective chemical solution (a dose of 2 kg/ha). After the treatment, the plants were grown in a glasshouse. On day 21, a survey was conducted on the herbicidal activity by visual observation, and evaluation was made according to the following criteria. 0: Growth inhibition effect is less than 10%. 1: Growth inhibition effect is equal to or greater than 10%, and less than 30%. 2; Growth inhibition effect is equal to or greater than 30%, and less than 50%. 3: Growth inhibition effect equal to or greater than 50%, and less than 70%. 4: Growth inhibition effect is equal to or greater than 70%, and less than 90%. 5: Growth inhibition effect is equal to or greater than 90%, or complete withering is achieved. ECHDG=Echinochloa crus-galli (L.) P. Beauv. var. formosensis Ohwi, MONVA=Monochoria vaginalis, SCIJU=Scirpus juncoides, CYMIC=Cyperus microiria.

Another experiment has as its system Scirpus juncoides. The experiment can be described thus: Test for Herbicidal Effect in Flooding Treatment (#1), SCIJU. The following applies: for SCIJU #1 herbicidal effect (growth inhibition grade): flooding treatment at seeding, dose 2 kg/ha, visual observation on day 21; for SCIJU #1 herbicidal effect (growth inhibition rating 0-5): flooding treatment #1. Put shortly: (§1)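 Sieved soil in cups was flooded and left 24 h before weed seeds were sown. Compounds in acetone, diluted with Tween 80-containing water, were dropped over the whole surface at 2 kg/ha. After 21 days in a glasshouse, growth inhibition was scored visually from 0 (<10%) to 5 (≥90% or complete withering).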

Experiment [1] deals with Echinochloa crus-galli (L.) P. Beauv. var. formosensis Ohwi. The experiment can be described thus: Test for Herbicidal Effect in Flooding Treatment (#2), ECHDG at 2-2.5 leaf stage. Conditions: for ECHDG (2-2.5L) #2 herbicidal effect (growth inhibition grade): flooding treatment at 2-2.5 leaf stage, dose 0.2 kg/ha, visual observation on day 21; for ECHDG (2-2.5L) #2 herbicidal effect (growth inhibition rating 0-5): flooding treatment #2, 2-2.5 leaf stage. The method, boiled down:
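Scoring is a visual 0–5 scale of growth inhibition (0 below 10%, 5 at 90% or more or full withering), taken 21 days after treatment in a glasshouse. Dose was 0.2 kg/ha, applied as acetone/Tween 80 aqueous solution onto flooded soil once seedlings reached the 2–2.5 leaf stage.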

The test system is the same in experiment [2]. Kind of experiment: Test for Herbicidal Effect in Flooding Treatment (#1), ECHDG. Conditions: for ECHDG #1 herbicidal effect (growth inhibition grade): flooding treatment at seeding, dose 2 kg/ha, visual observation on day 21; for ECHDG #1 herbicidal effect (growth inhibition rating 0-5): flooding treatment #1. Put shortly: as §1

Structures are written as SMILES.

Take `O=S(=O)(Cc1c(OC(F)F)ccc(Cl)c1F)c1ncc(Cl)s1` [Compound 1C-45]: in the experiment on Monochoria vaginalis, the “MONVA #1 herbicidal effect (growth inhibition grade)” value was 5 (Growth inhibition effect is equal to or greater than 90%, or complete withering is achieved). In the experiment with Scirpus juncoides, the “SCIJU #1 herbicidal effect (growth inhibition grade)” value is reported as 5 (Growth inhibition effect is equal to or greater than 90%, or complete withering is achieved). Also, in experiment [1], the “ECHDG (2-2.5L) #2 herbicidal effect (growth inhibition grade)” value is reported as 5 (Growth inhibition effect is equal to or greater than 90%, or complete withering is achieved). Also, in experiment [2], the “ECHDG #1 herbicidal effect (growth inhibition grade)” value was 5 (Growth inhibition effect is equal to or greater than 90%, or complete withering is achieved).
Turning to `O=S(=O)(Cc1c(F)cc(F)cc1OC(F)F)c1ncc(Cl)s1` [Compound 1C-44], in the experiment on Monochoria vaginalis, the “MONVA #1 herbicidal effect (growth inhibition grade)” value was 5 (Growth inhibition effect is equal to or greater than 90%, or complete withering is achieved). For the same molecule, the “SCIJU #1 herbicidal effect (growth inhibition grade)” value in the experiment on Scirpus juncoides is 5 (Growth inhibition effect is equal to or greater than 90%, or complete withering is achieved). Moreover, the “ECHDG (2-2.5L) #2 herbicidal effect (growth inhibition grade)” value in experiment [1] was 5 (Growth inhibition effect is equal to or greater than 90%, or complete withering is achieved). Besides, the “ECHDG #1 herbicidal effect (growth inhibition grade)” value in experiment [2] is given as 5 (Growth inhibition effect is equal to or greater than 90%, or complete withering is achieved).
On to `[O-][S+](Cc1c(F)cccc1OC(F)F)c1ncc(Cl)s1` (stereo not shown) [Compound 1B-3], for which the “MONVA #1 herbicidal effect (growth inhibition rating 0-5)” value in the experiment with Monochoria vaginalis is recorded as 5 (Growth inhibition effect is equal to or greater than 90%, or complete withering is achieved). For the same molecule, in the experiment on Scirpus juncoides, the “SCIJU #1 herbicidal effect (growth inhibition rating 0-5)” value was 5 (Growth inhibition effect is equal to or greater than 90%, or complete withering is achieved). The “ECHDG (2-2.5L) #2 herbicidal effect (growth inhibition rating 0-5)” value in experiment [1] is 5 (Growth inhibition effect is equal to or greater than 90%, or complete withering is achieved). Moreover, in experiment [2], the “ECHDG #1 herbicidal effect (growth inhibition rating 0-5)” value is 5 (Growth inhibition effect is equal to or greater than 90%, or complete withering is achieved).
Usually inhibition stands for how much of the control response was suppressed. In the case of `CCOc1ccc(Cl)c(Cl)c1CS(=O)(=O)c1ncc(Cl)s1` [Compound 1C-33, 5-chloro-2-[(2-ethoxy-5,6-dichlorophenyl)(methanesulfonyl)]-1,3-thiazole], in the experiment with Monochoria vaginalis, the “MONVA #1 herbicidal effect (growth inhibition grade)” value is on record as 5 (Growth inhibition effect is equal to or greater than 90%, or complete withering is achieved). Moreover, in the experiment on Scirpus juncoides, the “SCIJU #1 herbicidal effect (growth inhibition grade)” value is 5 (Growth inhibition effect is equal to or greater than 90%, or complete withering is achieved). Further, the inhibition at 200 g/ha in experiment [1] (Echinochloa crus-galli, 504 h, flooding treatment (#2), ECHDG at 2-2.5 leaf stage, dose of 0.2 kg/ha, day 21, visual observation, read-out: growth inhibition effect) is at least 90%. The “ECHDG (2-2.5L) #2 herbicidal effect (growth inhibition grade)” value in experiment [1] is 5 (Growth inhibition effect is equal to or greater than 90%, or complete withering is achieved). In addition, the “ECHDG #1 herbicidal effect (growth inhibition grade)” value in experiment [2] is 5 (Growth inhibition effect is equal to or greater than 90%, or complete withering is achieved).
Turning to `O=S(=O)(Cc1c(Cl)cccc1OCC(F)(F)F)c1ncc(Cl)s1` [Compound 1C-55], in the experiment on Monochoria vaginalis, the “MONVA #1 herbicidal effect (growth inhibition grade)” value is reported as 5 (Growth inhibition effect is equal to or greater than 90%, or complete withering is achieved). The “SCIJU #1 herbicidal effect (growth inhibition grade)” value in the experiment on Scirpus juncoides is recorded as 5 (Growth inhibition effect is equal to or greater than 90%, or complete withering is achieved). The “ECHDG (2-2.5L) #2 herbicidal effect (growth inhibition grade)” value in experiment [1] is listed as 5 (Growth inhibition effect is equal to or greater than 90%, or complete withering is achieved). For the same molecule, the “ECHDG #1 herbicidal effect (growth inhibition grade)” value in experiment [2] is given as 5 (Growth inhibition effect is equal to or greater than 90%, or complete withering is achieved).
As to `O=S(=O)(Cc1c(OCC(F)(F)F)cccc1C(F)(F)F)c1ncc(Br)s1` [Compound 1C-162], the “MONVA #1 herbicidal effect (growth inhibition grade)” value in the experiment on Monochoria vaginalis is reported as 5 (Growth inhibition effect is equal to or greater than 90%, or complete withering is achieved). Also, the “SCIJU #1 herbicidal effect (growth inhibition grade)” value in the experiment with Scirpus juncoides was 5 (Growth inhibition effect is equal to or greater than 90%, or complete withering is achieved). Further, the “ECHDG (2-2.5L) #2 herbicidal effect (growth inhibition grade)” value in experiment [1] is listed as 5 (Growth inhibition effect is equal to or greater than 90%, or complete withering is achieved). Also, in experiment [2], the “ECHDG #1 herbicidal effect (growth inhibition grade)” value was 5 (Growth inhibition effect is equal to or greater than 90%, or complete withering is achieved).
For the molecule `O=S(=O)(Cc1c(F)ccc(F)c1OC(F)F)c1ncc(Br)s1` [Compound 1C-155], the “MONVA #1 herbicidal effect (growth inhibition grade)” value with Monochoria vaginalis is 5 (Growth inhibition effect is equal to or greater than 90%, or complete withering is achieved). In the experiment on Scirpus juncoides, the “SCIJU #1 herbicidal effect (growth inhibition grade)” value was 5 (Growth inhibition effect is equal to or greater than 90%, or complete withering is achieved). The “ECHDG (2-2.5L) #2 herbicidal effect (growth inhibition grade)” value in experiment [1] is recorded as 5 (Growth inhibition effect is equal to or greater than 90%, or complete withering is achieved). The “ECHDG #1 herbicidal effect (growth inhibition grade)” value in experiment [2] is given as 5 (Growth inhibition effect is equal to or greater than 90%, or complete withering is achieved).
Take `[O-][S+](Cc1c(Cl)cccc1OC(F)F)c1ncc(Br)s1` (stereo not shown) [Compound 1B-20]: the “MONVA #1 herbicidal effect (growth inhibition rating 0-5)” value in the experiment with Monochoria vaginalis was 5 (Growth inhibition effect is equal to or greater than 90%, or complete withering is achieved). Moreover, the “SCIJU #1 herbicidal effect (growth inhibition rating 0-5)” value with Scirpus juncoides was 5 (Growth inhibition effect is equal to or greater than 90%, or complete withering is achieved). The “ECHDG (2-2.5L) #2 herbicidal effect (growth inhibition rating 0-5)” value in experiment [1] is reported as 5 (Growth inhibition effect is equal to or greater than 90%, or complete withering is achieved). The “ECHDG #1 herbicidal effect (growth inhibition rating 0-5)” value in experiment [2] was 5 (Growth inhibition effect is equal to or greater than 90%, or complete withering is achieved).
Regarding `CC(C)(c1c(F)cccc1OCC(F)F)S(=O)(=O)c1ncc(Cl)s1` [Compound 1C-143], the “MONVA #1 herbicidal effect (growth inhibition grade)” value with Monochoria vaginalis was 5 (Growth inhibition effect is equal to or greater than 90%, or complete withering is achieved). Moreover, the “SCIJU #1 herbicidal effect (growth inhibition grade)” value with Scirpus juncoides is on record as 5 (Growth inhibition effect is equal to or greater than 90%, or complete withering is achieved). Also, the “ECHDG (2-2.5L) #2 herbicidal effect (growth inhibition grade)” value in experiment [1] was 4 (Growth inhibition effect is equal to or greater than 70%, and less than 90%). Besides, in experiment [2], the “ECHDG #1 herbicidal effect (growth inhibition grade)” value is on record as 5 (Growth inhibition effect is equal to or greater than 90%, or complete withering is achieved).
As to `[O-][S+](Cc1c(OCC(F)F)cccc1C(F)(F)F)c1ncc(Cl)s1` (stereo not shown) [Compound 1B-8], the “MONVA #1 herbicidal effect (growth inhibition rating 0-5)” value with Monochoria vaginalis is listed as 5 (Growth inhibition effect is equal to or greater than 90%, or complete withering is achieved). For the same molecule, the “SCIJU #1 herbicidal effect (growth inhibition rating 0-5)” value in the experiment with Scirpus juncoides is recorded as 5 (Growth inhibition effect is equal to or greater than 90%, or complete withering is achieved). Besides, in experiment [1], the “ECHDG (2-2.5L) #2 herbicidal effect (growth inhibition rating 0-5)” value is reported as 5 (Growth inhibition effect is equal to or greater than 90%, or complete withering is achieved). The “ECHDG #1 herbicidal effect (growth inhibition rating 0-5)” value in experiment [2] was 5 (Growth inhibition effect is equal to or greater than 90%, or complete withering is achieved).
`[2H]C([2H])(c1c(F)cccc1OC(F)F)S(=O)(=O)c1ncc(Cl)s1` [Compound 1C-131]: the “MONVA #1 herbicidal effect (growth inhibition grade)” value in the experiment on Monochoria vaginalis is listed as 5 (Growth inhibition effect is equal to or greater than 90%, or complete withering is achieved). Also, the “SCIJU #1 herbicidal effect (growth inhibition grade)” value with Scirpus juncoides is listed as 5 (Growth inhibition effect is equal to or greater than 90%, or complete withering is achieved). Also, the “ECHDG (2-2.5L) #2 herbicidal effect (growth inhibition grade)” value in experiment [1] is given as 5 (Growth inhibition effect is equal to or greater than 90%, or complete withering is achieved). Also, the “ECHDG #1 herbicidal effect (growth inhibition grade)” value in experiment [2] was 5 (Growth inhibition effect is equal to or greater than 90%, or complete withering is achieved).
Turning to `[2H]C([2H])(c1c(Cl)ccc(OC)c1Cl)S(=O)(=O)c1ncc(Cl)s1` [Compound 1C-137], the “MONVA #1 herbicidal effect (growth inhibition grade)” value in the experiment with Monochoria vaginalis was 5 (Growth inhibition effect is equal to or greater than 90%, or complete withering is achieved). Also, the “SCIJU #1 herbicidal effect (growth inhibition grade)” value with Scirpus juncoides was 5 (Growth inhibition effect is equal to or greater than 90%, or complete withering is achieved). In addition, the “ECHDG (2-2.5L) #2 herbicidal effect (growth inhibition grade)” value in experiment [1] is reported as 5 (Growth inhibition effect is equal to or greater than 90%, or complete withering is achieved). Moreover, the “ECHDG #1 herbicidal effect (growth inhibition grade)” value in experiment [2] is given as 5 (Growth inhibition effect is equal to or greater than 90%, or complete withering is achieved).
